Assay results: article PMC4577212, “X-Ray Structure and Mutagenesis Studies of the N-Isopropylammelide Isopropylaminohydrolase, AtzC” (PLoS ONE, 2015)

Target: T1, AtzC (N-isopropylammelide isopropylaminohydrolase) (Pseudomonas sp. ADP, UniProt O52063)
T1 construct: full length, N-terminal His-tag (pETCC2, from pET14b), expressed in E. coli BL21(DE3); tag cut with thrombin for crystals; homotetramer ~210 kDa; Zn enzyme
T1 sequence (O52063 1-403): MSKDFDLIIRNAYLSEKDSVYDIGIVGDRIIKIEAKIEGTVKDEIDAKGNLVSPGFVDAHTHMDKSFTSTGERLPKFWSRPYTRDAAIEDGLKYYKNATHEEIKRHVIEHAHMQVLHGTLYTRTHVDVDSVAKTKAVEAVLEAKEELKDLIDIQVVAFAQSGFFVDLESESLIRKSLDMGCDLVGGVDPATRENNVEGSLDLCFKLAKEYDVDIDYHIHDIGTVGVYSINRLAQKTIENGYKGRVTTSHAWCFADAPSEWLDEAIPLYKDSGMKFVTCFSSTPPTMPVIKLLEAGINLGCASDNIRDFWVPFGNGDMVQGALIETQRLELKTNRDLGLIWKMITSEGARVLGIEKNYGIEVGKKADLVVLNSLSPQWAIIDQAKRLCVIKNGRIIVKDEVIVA
Test: X-ray crystal structure, […] Å
Format: binding
Details: crystals from 2.4 M sodium malonate pH 7; active site; tag cut with thrombin

With O=C(O)CC(=O)O [malonic acid] the “X-ray crystal structure, 1.84 Å” value was “The malonate (a poor inhibitor of AtzC, Figure E in S1 File) adopts a planar conformation”.
